This is an account of results in publication PMC11591356, “Immunomodulatory Effects of the Tobacco Defensin NaD1” (Antibiotics, 2024).

Series [1] has as its system PBMCs. To be noted: cited from earlier work. The protocol: (§1) The human cathelicidin LL-37 has been previously shown to have a toxic effect on PBMCs at the concentration of 12 µM [20].
Series [2] concerns PBMCs. Put plainly: Cytotoxicity assay, resazurin method, PBMCs. It is filed as cell-based, human. To be noted: PBMCs, peptide 2.5 µM, 24 h, resazurin. From the text: Peripheral blood mononuclear cells (PBMCs) from healthy donors were purchased from American Type Culture Collection (ATCC PCS-800-011). Primary monocytes were isolated from PBMCs by adherence to the plastic surface. For that, PBMCs were thawed, resuspended in RPMI-1640 culture medium (Corning, Corning, NY, USA) without serum at a concentration of 2 × 10^6 cells/mL, seeded into the wells of a 24-well plate and placed in a humidified CO2-intubator (CellXpert C170i, Eppendorf, Hamburg, Germany) for 1 h. After that, non-adherent cells were removed from the wells and attached monocytes were thoroughly washed with PBS and cultured in a CO2-intubator in complete RPMI-1640 containing 10% human serum (HS Type AB, Capricorn Scientific, Ebsdorfergrund, Germany) and 1×antibiotic-antimycotic (1×AA) solution (Sigma, St. Louis, MO, USA).
(§2) The cytotoxic effects of the tobacco defensin NaD1 towards PBMCs or Caco-2 cells were investigated in 96-well plates using the resazurin method as previously described. In brief, 4 × 10^5 per well Caco-2 cells not in a monolayer as well as Caco-2 cells in a monolayer in DMEM/F12 (1:1) medium with 10% FBS or 2 × 10^6 PBMCs per well in RPMI-1640 also with 10% FBS were incubated with serial dilutions of NaD1 at final concentrations from 0.39 to 50 μM or from 2.1 to 180 μM for 24 h. After that, resazurin (Sigma, St. Louis, MO, USA) was added at a final concentration of 70 µM and the plates were incubated overnight (16–18 h). Untreated cells and cells treated by non-ionogenic detergent Triton X-100 were used as negative and positive controls, respectively. […] The cell viability was estimated by resorufin fluorescence registered at […] via the following equation: cell viability (%) = (Fsample/Fcontrol) × 100%. Experiment was carried out twice in duplicate.
(In general: Alamar Blue is a resazurin reagent that responds to reducing activity.)

Series [3] deals with Caco-2 cells in a monolayer. Put plainly: Cytotoxicity assay, resazurin method, Caco-2 cells in a monolayer. The class given is cell-based, human. The note with it: Caco-2 monolayer, peptide 0.8 µM, 24 h. The protocol: as §2
Series [4] relates to THP-1-derived macrophages. In words: ELISA assay of cytokine production by THP-1-derived macrophages. It is filed as cell-based, human. The protocol:
THP-1 (ATCC TIB-202) cells were thawed and cultured in complete RPMI-1640, containing 10% FBS (Capricorn Scientific) and 1×AA solution in CO2-intubator. Monocytic THP-1 cells were differentiated into resting M0 macrophages by stimulation for 24 h with 100 ng/mL phorbol 12-myristate 13-acetate (PMA) in complete RPMI-1640. Then, the attached macrophage-like cells were washed out with culture medium without serum and incubated for another 48 h in PMA-free complete culture medium with 10% HS and 1×AA solution.
THP-1-derived macrophages were seeded into the wells of a 24-well plate at a density of 2.7 × 10^5 cells/well in complete RPMI-1640 with 10% HS and 1×AA solution. Then, 24 h later, the culture medium was replaced by the fresh complete RPMI-1640 containing lipopolysaccharide from Escherichia coli 0111:B4 (LPS, Sigma, St. Louis, MO, USA) or zymosan from the cell wall of Saccharomyces cerevisiae (Serva, Heidelberg, Germany) at concentrations of 1 or 10 μg/mL, respectively; antimicrobial peptides NaD1, Psd1, LL-37 or HBD2 at concentrations of 2 or 0.2 µM; and combinations of antimicrobial peptides with LPS or zymosan at the same concentrations. Insoluble zymosan was resuspended in sterile water and sonicated twice for 30 s; after that, the stock solution was heated to 80 °C for 20 min. Peptides were added 2 h before stimulation with LPS and zymosan. After that, PAMPs solutions were added and the cells were cultured for 24 h. Complete RPMI-1640 only was used in the control wells. Culture supernatants were collected and stored at −70 °C prior to the cytokines’ assessment.
The production of pro- and anti-inflammatory cytokines IL-1β, IL-6, TNF-α and IL-10 by stimulated and non-stimulated THP-1-derived macrophages were estimated by using ELISA kits (Vector-Best, Koltsovo, Russia). Briefly, 96-well plates with adsorbed monoclonal antibodies to the corresponding cytokine were used. Undiluted or diluted 5, 20 or 80 times in the case of IL-10, TNF-α and IL-1β or IL-6, respectively, culture supernatants from the wells of 24-well plates were taken for analysis. Biotinylated polyclonal antibodies to cytokines, streptavidin conjugated to HRP and TMB substrate were further used for the detection of immune complexes. A panel of calibration solutions containing different concentrations of cytokines was used in each experiment. Experiments were performed using two biological and two technical repeats. The release of the cytokines in the control and experimental samples was compared with an unpaired two-sample t-test using GraphPad Prism v.8.0.1 (GraphPad Software, Inc., San Diego, CA, USA). The p values ≤ 0.05 were considered significant.

For series [5], the system named is THP-1 cells. The note with it: peptide 1.2 µM; cited from earlier work. The protocol:
as §1

Series [6] has as its system primary monocytes. To be noted: cited from earlier work. The text has this: Then, primary human monocytes were chosen to study the immunomodulatory properties of NaD1. Monocytes circulating in the blood can be recruited and extravasated into tissues during inflammatory processes. Moreover, the recruitment of monocytes to the sites of inflammation is critical for host defense not only when infected, but also in the case of sterile injury. In the case of monocytes, NaD1 at the same concentration induced a decrease of chemotactic CXCL1/GROα and CXCL8/IL-8 levels and elevation of the fibroblast growth factor 2 (FGF-2) production; however, these changes were ...

The subject of series [7] is mature DCs. To be noted: previous study; cited from earlier work. The text has this:
In the next step of this work, we studied the immunomodulatory properties of NaD1 by using primary monocytes and monocyte-derived immature dendritic cells (DCs). DCs represent a type of antigen-presenting cells, playing a key role in adaptive immune response. Their primary functions involve phagocytosis, processing and presentation of captured antigens to T cells. In most tissues, they are present in a state known as “immature” DCs, unable to activate and stimulate T lymphocytes; their activation and maturation typically starts when DCs identify danger signals. This is why immature DCs ...

Series [8] relates to Caco-2 polarized monolayer. The note with it: cited from earlier work.
The mark [9] stands for this setting: peptide 2 µM 2 h before LPS 1 μg/mL, 24 h, vs LPS alone.
The mark [10] stands for this setting: peptide 2 µM 2 h before zymosan 10 μg/mL, 24 h, vs zymosan alone.

As to `CC[C@H](C)[C@H](NC(=O)[C@H](CCCCN)NC(=O)[C@H](CCC(=O)O)NC(=O)[C@H](CCCCN)NC(=O)[C@H](CO)NC(=O)[C@H](CCCCN)NC(=O)[C@H](CCCNC(=N)N)NC(=O)[C@H](Cc1ccccc1)NC(=O)[C@H](Cc1ccccc1)NC(=O)[C@H](CC(=O)O)NC(=O)CNC(=O)[C@H](CC(C)C)NC(=O)[C@@H](N)CC(C)C)C(=O)NCC(=O)N[C@@H](CCCCN)C(=O)N[C@@H](CCC(=O)O)C(=O)N[C@@H](Cc1ccccc1)C(=O)N[C@@H](CCCCN)C(=O)N[C@@H](CCCNC(=N)N)C(=O)N[C@H](C(=O)N[C@H](C(=O)N[C@@H](CCC(N)=O)C(=O)N[C@@H](CCCNC(=N)N)C(=O)N[C@H](C(=O)N[C@@H](CCCCN)C(=O)N[C@@H](CC(=O)O)C(=O)N[C@@H](Cc1ccccc1)C(=O)N[C@@H](CC(C)C)C(=O)N[C@@H](CCCNC(=N)N)C(=O)N[C@@H](CC(N)=O)C(=O)N[C@@H](CC(C)C)C(=O)N[C@H](C(=O)N1CCC[C@H]1C(=O)N[C@@H](CCCNC(=N)N)C(=O)N[C@H](C(=O)N[C@@H](CCC(=O)O)C(=O)N[C@@H](CO)C(=O)O)[C@@H](C)O)C(C)C)[C@@H](C)CC)C(C)C)[C@@H](C)CC` [LL-37], in series [1] (peptide 12 µM), the “Toxic effect on PBMCs” value is on record as “toxic effect”.

With `CC[C@H](C)[C@H](NC(=O)CN)C(=O)NCC(=O)N[C@@H](C)C(=O)N[C@H](C(=O)N[C@@H](CC(C)C)C(=O)N[C@@H](CCCCN)C(=O)N[C@H](C(=O)N[C@@H](CC(C)C)C(=O)N[C@H](C(=O)N[C@H](C(=O)NCC(=O)N[C@@H](CC(C)C)C(=O)N1CCC[C@H]1C(=O)N[C@@H](C)C(=O)N[C@@H](CC(C)C)C(=O)N[C@H](C(=O)N[C@@H](CO)C(=O)N[C@@H](Cc1c[nH]c2ccccc12)C(=O)N[C@H](C(=O)N[C@@H](CCCCN)C(=O)N[C@@H](CCCNC(=N)N)C(=O)N[C@@H](CCCCN)C(=O)N[C@@H](CCCNC(=N)N)C(=O)N[C@@H](CCC(N)=O)C(=O)N[C@@H](CCC(N)=O)C(N)=O)[C@@H](C)CC)[C@@H](C)CC)[C@@H](C)O)[C@@H](C)O)C(C)C)C(C)C` [melittin, reference compound], the Cell death result in series [2] is reported as “approximately 50%”. Also, in series [3], the Cell viability result is “a decrease in cell viability was observed”.

As to “HBD2: Recombinant human β-defensin 2 (UNIPROT O15263), expressed in E. coli (GIGDPVTCLKSGAICHPVFCPRRYKQIGTCGLPGTKCCKKP; UniProt O15263 24-64, looked up) [reference compound]”, the “LPS-induced IL-6 production” value in series [4] (setting [9]) is given as “increased the LPS-stimulated production of IL-6”. Further, the “Zymosan-induced IL-6 production” value in series [4] (setting [10]) is “slight decrease in the zymosan-induced production of IL-6”. Moreover, in series [5], the “Level of THP-1 cell death” value is “did not increase the level of THP-1 cell death”.

On to “Psd1: Pea defensin Psd1 (UNIPROT P81929), obtained as described previously (KTCEHLADTYRGVCFTNASCDDHCKNKAHLISGTCHNWKCFCTQNC; UniProt P81929 1-46, looked up) [reference compound]”, for which, in series [4] (setting [9]), the “LPS-induced IL-6 production” value is given as “increased the LPS-stimulated production of IL-6”, the “LPS-induced IL-10 production” value is given as “increased the LPS-induced production of IL-10” and the “LPS-induced TNF-α secretion” value was “reduced the LPS-induced secretion of TNF-α”. For the same compound, in series [4] (setting [10]), the “IL-1β production in the presence of zymosan” value is listed as “slightly reduced the production of IL-1β” and the “IL-10 production in the presence of zymosan” value is “increased the production of IL-10 in the presence of zymosan”. The “IL-10 production, unstimulated macrophages” value in series [4] (peptide 2 µM alone, vs unstimulated control) is on record as “induced the production of IL-10”. The “Production of chemokines by monocytes” value in series [6] was “increased the production of both CCL3/MIP-1α and CCL4/MIP-1β”. Moreover, the “Cytotoxic activity against PBMCs” value in series [1] (peptide 50 µM) is “no cytotoxic activity”. For the same compound, in series [7], the “Production of cytokines and chemokines by mature DCs” value is “induced an elevation of the production of cytokines IL-1RA, IL-5, IL-6, IL-10, IL-12, IL-15, IL-27 and TNFα and chemokines CXCL8/IL-8, CCL2/MCP-1 and CCL7/MCP-3”. Moreover, in series [8] (Psd1 value from earlier work), the “Papp A→B compared with NaD1” value is reported as “nearly the same”. Besides, the “Papp, secretory versus absorptive direction” value in series [8] is reported as “apparent permeability coefficients were higher in the secretory direction than in the absorptive one”.
